According to PubChem BioAssay AID248 (DTP/NCI, 2004):
Where “and” joins values, the source holds several entries; their conditions need not be identical. Equal entries are not always repeated. Toxic doses and inconclusive results are not listed. Cut-off read from the data, not from the text of the source: active = T/C of 150% or more; inactive = T/C below 125%.

System: L1210 leukemia ip in BDF1 mice, survival T/C
Assay: NCI In Vivo Anticancer Drug Screen. Data for tumor model L1210 Leukemia (intraperitoneal) in B6D2F1 (BDF1) mice
Conditions: higher = longer survival
Procedure, shortened: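 Ratio derived from survival: compound-dosed mice over vehicle-dosed mice, all bearing a transplantable tumor.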

[1] = endpoint: mean survival time, dose: 100.0 mg/kg/injection, schedule: Q01DX001 (ip), vehicle: Klucel (hydroxypropylcellulose) (HPC)
[2] = endpoint: mean survival time, dose: 100.0 mg/kg/injection, schedule: Q04DX003 (ip), vehicle: saline with Tween-80
[3] = endpoint: mean survival time, dose: 100.0 mg/kg/injection, schedule: Q04DX002 (ip), vehicle: Klucel (hydroxypropylcellulose) (HPC)
[4] = endpoint: mean survival time, dose: 200.0 mg/kg/injection, schedule: Q04DX002 (ip), vehicle: Klucel (hydroxypropylcellulose) (HPC)
[5] = endpoint: mean survival time, dose: 100.0 mg/kg/injection, schedule: Q01DX009 (ip), vehicle: saline
[6] = endpoint: mean survival time, dose: 200.0 mg/kg/injection, schedule: Q01DX009 (ip), vehicle: saline
[7] = endpoint: mean survival time, dose: 400.0 mg/kg/injection, schedule: Q01DX009 (ip), vehicle: saline
[8] = endpoint: mean survival time, dose: 100.0 mg/kg/injection, schedule: Q01DX009 (ip), vehicle: Klucel (hydroxypropylcellulose) (HPC)
[9] = endpoint: mean survival time, dose: 200.0 mg/kg/injection, schedule: Q01DX009 (ip), vehicle: Klucel (hydroxypropylcellulose) (HPC)
[10] = endpoint: mean survival time, dose: 400.0 mg/kg/injection, schedule: Q01DX009 (ip), vehicle: Klucel (hydroxypropylcellulose) (HPC)
[11] = endpoint: mean survival time, dose: 100.0 mg/kg/injection, schedule: Q04DX003 (ip), vehicle: Klucel (hydroxypropylcellulose) (HPC)
[12] = endpoint: mean survival time, dose: 200.0 mg/kg/injection, schedule: Q04DX003 (ip), vehicle: Klucel (hydroxypropylcellulose) (HPC)
[13] = endpoint: mean survival time, dose: 400.0 mg/kg/injection, schedule: Q04DX003 (ip), vehicle: Klucel (hydroxypropylcellulose) (HPC)
[14] = endpoint: mean survival time, dose: 100.0 mg/kg/injection, schedule: Q01DX001 (ip), vehicle: saline
[15] = endpoint: mean survival time, dose: 200.0 mg/kg/injection, schedule: Q01DX001 (ip), vehicle: saline
[16] = endpoint: mean survival time, dose: 400.0 mg/kg/injection, schedule: Q01DX001 (ip), vehicle: saline
[17] = endpoint: mean survival time, dose: 100.0 mg/kg/injection, schedule: Q01DX009 (ip), vehicle: saline with Tween-80
[18] = endpoint: mean survival time, dose: 200.0 mg/kg/injection, schedule: Q01DX009 (ip), vehicle: saline with Tween-80
[19] = endpoint: mean survival time, dose: 200.0 mg/kg/injection, schedule: Q04DX003 (ip), vehicle: saline with Tween-80
[20] = endpoint: mean survival time, dose: 400.0 mg/kg/injection, schedule: Q01DX009 (ip), vehicle: saline with Tween-80
[21] = endpoint: mean survival time, dose: 400.0 mg/kg/injection, schedule: Q04DX003 (ip), vehicle: saline with Tween-80
[22] = endpoint: mean survival time, dose: 25.0 mg/kg/injection, schedule: Q01DX001 (ip), vehicle: saline with Tween-80
[23] = endpoint: mean survival time, dose: 50.0 mg/kg/injection, schedule: Q01DX001 (ip), vehicle: saline with Tween-80
[24] = endpoint: mean survival time, dose: 100.0 mg/kg/injection, schedule: Q01DX001 (ip), vehicle: saline with Tween-80
[25] = endpoint: mean survival time, dose: 200.0 mg/kg/injection, schedule: Q01DX001 (ip), vehicle: saline with Tween-80
[26] = endpoint: mean survival time, dose: 400.0 mg/kg/injection, schedule: Q01DX001 (ip), vehicle: saline with Tween-80

Measured: T/C

COC1=C2CCCCC2=[N+]2CCc3ccccc3C2C1 (stereo not drawn)
inactive: [1] 93 % of control

N=c1c2n[nH]nc2ncn1O
inactive: endpoint: mean survival time, dose: 75.0 mg/kg/injection, schedule: Q01DX001 (ip), vehicle: other 92 % of control | endpoint: mean survival time, dose: 150.0 mg/kg/injection, schedule: Q01DX001 (ip), vehicle: other 110 % of control | endpoint: mean survival time, dose: 300.0 mg/kg/injection, schedule: Q01DX001 (ip), vehicle: other 101 % of control

CN(Cc1ccccc1)c1ccc2nc(N)nc(N)c2c1
inactive: endpoint: mean survival time, dose: 25.0 mg/kg/injection, schedule: Q04DX003 (ip), vehicle: saline with Tween-80 105 % of control | endpoint: mean survival time, dose: 50.0 mg/kg/injection, schedule: Q04DX003 (ip), vehicle: saline with Tween-80 98 % of control | [2] 108 % of control

CCC1(CC)C(=O)NC(=O)N(C)C1=O
inactive: [3] 112 % of control | [4] 88 % of control

Nc1ccc2ncccc2c1[N+](=O)[O-]
inactive: endpoint: mean survival time, dose: 100.0 mg/kg/injection, schedule: Q01DX001 (ip), vehicle: other 87 % of control | endpoint: mean survival time, dose: 200.0 mg/kg/injection, schedule: Q01DX001 (ip), vehicle: other 93 % of control

CCOC(=O)c1c(N)ssc1=S
inactive: [5] 100 % of control | endpoint: mean survival time, dose: 100.0 mg/kg/injection, schedule: Q04DX003 (ip), vehicle: saline 102 % of control | [6] 105 % of control | endpoint: mean survival time, dose: 200.0 mg/kg/injection, schedule: Q04DX003 (ip), vehicle: saline 105 % of control | [7] 105 % of control | endpoint: mean survival time, dose: 400.0 mg/kg/injection, schedule: Q04DX003 (ip), vehicle: saline 107 % of control

NCC(=O)NC1(C(=O)O)C2CC3CC(C2)CC1C3 (stereo not drawn)
inactive: endpoint: mean survival time, dose: 25.0 mg/kg/injection, schedule: Q01DX009 (ip), vehicle: Klucel (hydroxypropylcellulose) (HPC) 96 % of control | endpoint: mean survival time, dose: 50.0 mg/kg/injection, schedule: Q01DX009 (ip), vehicle: Klucel (hydroxypropylcellulose) (HPC) 94 % of control | [8] 94 % of control and 96 % of control | [9] 103 % of control | [10] 103 % of control

O=[N+]([O-])c1ccc(C2=NCCS2)cc1
inactive: endpoint: mean survival time, dose: 87.0 mg/kg/injection, schedule: Q04DX003 (ip), vehicle: Klucel (hydroxypropylcellulose) (HPC) 102 % of control | endpoint: mean survival time, dose: 175.0 mg/kg/injection, schedule: Q04DX003 (ip), vehicle: Klucel (hydroxypropylcellulose) (HPC) 102 % of control | endpoint: mean survival time, dose: 350.0 mg/kg/injection, schedule: Q04DX003 (ip), vehicle: Klucel (hydroxypropylcellulose) (HPC) 102 % of control

OC(c1ccccc1)(c1c2ccccc2cc2ccccc12)C1CCC1 (stereo not drawn)
inactive: [8] 101 % of control | [11] 110 % of control | [9] 102 % of control | [12] 91 % of control | [10] 96 % of control | [13] 110 % of control

COc1cc(Br)c2c(c1OC)C(=O)CC2
inactive: [8] 94 % of control | [11] 98 % of control | [9] 96 % of control | [12] 96 % of control | [10] 98 % of control | [13] 91 % of control

COC(=O)C(CCc1cc(OC)c(OC)c(OC)c1)C(C(=O)OC)C(=O)OC (stereo not drawn)
inactive: [11] 87 % of control | [12] 94 % of control | [13] 89 % of control

COc1ccc2c(ccc3oc([N+](=O)[O-])cc32)c1
inactive: endpoint: median survival time, dose: 12.5 mg/kg/injection, schedule: Q01DX009 (ip), vehicle: Klucel (hydroxypropylcellulose) (HPC) 100 % of control | endpoint: median survival time, dose: 25.0 mg/kg/injection, schedule: Q01DX009 (ip), vehicle: Klucel (hydroxypropylcellulose) (HPC) 95 % of control | endpoint: median survival time, dose: 50.0 mg/kg/injection, schedule: Q01DX009 (ip), vehicle: Klucel (hydroxypropylcellulose) (HPC) 101 % of control | endpoint: median survival time, dose: 100.0 mg/kg/injection, schedule: Q01DX009 (ip), vehicle: Klucel (hydroxypropylcellulose) (HPC) 108 % of control | endpoint: median survival time, dose: 200.0 mg/kg/injection, schedule: Q01DX009 (ip), vehicle: Klucel (hydroxypropylcellulose) (HPC) 106 % of control

CCC[N+](C)(C)CC[N+](C)(C)CCC
inactive: [14] 99 % of control | [15] 103 % of control | [16] 101 % of control

C=CN1C(=O)N(C=C)C(C)(CC(C)C)C1=O (stereo not drawn)
inactive: endpoint: mean survival time, dose: 50.0 mg/kg/injection, schedule: Q01DX009 (ip), vehicle: saline with Tween-80 104 % of control | [17] 103 % of control | [2] 92 % of control | [18] 103 % of control | [19] 92 % of control

CCOC(=O)CCN(Cc1ccccc1)CC(C)C(=O)OC (stereo not drawn)
inactive: [17] 102 % of control | [2] 104 % of control | [18] 97 % of control | [19] 91 % of control | [20] 95 % of control | [21] 96 % of control

COC(=O)C(Br)CCBr (stereo not drawn)
inactive: [17] 94 % of control | [2] 94 % of control | [18] 95 % of control | [19] 101 % of control | [20] 100 % of control | [21] 105 % of control

CN(CC(O)CN)c1ccc(Cl)cc1 (stereo not drawn)
inactive: [22] 104 % of control | [23] 101 % of control | [24] 100 % of control and 103 % of control

O=[N+]([O-])c1cccc(CNc2ccccc2)c1
inactive: [24] 98 % of control | [25] 95 % of control | [26] 93 % of control

N#Cc1nc2c3ccccc3c3ccccc3c2nc1C#N
inactive: endpoint: mean survival time, dose: 75.0 mg/kg/injection, schedule: Q01DX009 (ip), vehicle: other 90 % of control | endpoint: mean survival time, dose: 300.0 mg/kg/injection, schedule: Q01DX009 (ip), vehicle: other 104 % of control

Nc1nc(N)c(-c2ccc(Cl)c(Cl)c2)c(/C=C/c2ccc(S(=O)(=O)F)cc2)n1
inactive: [24] 87 % of control | [25] 91 % of control | [26] 87 % of control

Cc1cccc(Nc2c3ccccc3nc3ccccc23)c1
inactive: [22] 97 % of control | [23] 100 % of control | [24] 104 % of control

Nc1cc2scnc2c(N)n1
inactive: [1] 94 % of control | endpoint: mean survival time, dose: 200.0 mg/kg/injection, schedule: Q01DX001 (ip), vehicle: Klucel (hydroxypropylcellulose) (HPC) 91 % of control | endpoint: mean survival time, dose: 400.0 mg/kg/injection, schedule: Q01DX001 (ip), vehicle: Klucel (hydroxypropylcellulose) (HPC) 86 % of control

NCCc1cnc[nH]1
inactive: endpoint: mean survival time, dose: 50.0 mg/kg/injection, schedule: Q01DX009 (ip), vehicle: saline 89 % of control | [5] 106 % of control | [6] 89 % of control

O=C(NCCCl)Nc1cccc(Cl)c1
inactive: [22] 97 % of control | [23] 94 % of control | [24] 86 % of control

N#CC(C#N)=Cc1ccc(O)cc1
inactive: endpoint: mean survival time, dose: 5.0 mg/kg/injection, schedule: Q01DX001 (ip), vehicle: saline 105 % of control | endpoint: mean survival time, dose: 10.0 mg/kg/injection, schedule: Q01DX001 (ip), vehicle: saline 105 % of control | endpoint: mean survival time, dose: 20.0 mg/kg/injection, schedule: Q01DX001 (ip), vehicle: saline 92 % of control | endpoint: mean survival time, dose: 40.0 mg/kg/injection, schedule: Q01DX001 (ip), vehicle: saline 103 % of control | endpoint: mean survival time, dose: 80.0 mg/kg/injection, schedule: Q01DX001 (ip), vehicle: saline 97 % of control

Nc1ncnn1C(=O)OCc1ccccc1
inactive: [14] 98 % of control | [5] 89 % of control | [15] 112 % of control | [6] 96 % of control | [16] 93 % of control | [7] 100 % of control

c1cc2c(c(C3=NCCO3)c1)CCCC2 (tested in a mixture with another compound)
inactive: [17] 96 % of control | [18] 88 % of control | [20] 91 % of control

CCOC(=O)c1cnc(=O)[nH]c1Nc1ccccc1Cl
inactive: [11] 94 % of control | [12] 101 % of control | [13] 90 % of control

OCC(O)C(O)CO (stereo not drawn) (tested in a mixture with another compound)
inactive: endpoint: mean survival time, dose: 50.0 mg/kg/injection, schedule: Q04DX002 (ip), vehicle: Klucel (hydroxypropylcellulose) (HPC) 104 % of control | [3] 95 % of control | [4] 98 % of control
